Measurements taken from patent US10358446B2, “Bruton's tyrosine kinase inhibitors” (Zibo Biopolar Changsheng Pharmaceutical Co. Ltd., priority 2015, dated 2019).
Blank lines part the entries; values can stand above or below the molecule they belong to.

Molecular target: BTK (Homo sapiens (Human), UniProt Q06187)
Test: Btk kinase assay (HTRF)
Assay type: biochemical
Conditions: [ATP]=80 μM, BTK=3.4 nM; read-out: BTK Inhibition
Method: Btk kinase activity was determined using a homogenous time resolved fluorescence (HTRF) methodology. Measurements were performed in a reaction volume of 15 μL using 384-well assay plates. Kinase enzyme, inhibitor, ATP and 1 μM peptide substrate were incubated in a reaction buffer compose of Hepes 50 mM (pH7.0), NaN3 0.02%, BSA 0.01%, Orthocanadate 0.1 mM. After one hour, the kinase reaction was quenched by the addition of […] antibody and XL-665 in 1× Detection buffer containing 60 mM EDTA (Cisbio), and the mixture was allowed to incubate for one hour. The HTRF signal was measured on a multimode plate reader (EnVision® Multilabel Reader, Perkin Elmer) with an excitation wavelength (λEx) of 330 nm and detection wavelengths (λEm) of 615 and 665 nrm. Activity was determined by the ratio of the fluorescence at 665 nm to that at 615 nm. For each compound, enzyme activity as measured at various concentrations of compound, Negative control reactions were performed in the absence of inhibitor in two replicates and eight no enzyme controls were used to determine baseline fluorescence levels. IC50s were obtained according to the equation: […] For BTK assay, [ATP]=80 μM, BTK=3.4 nM.

BTK, sequence (Q06187 whole entry, species assumed): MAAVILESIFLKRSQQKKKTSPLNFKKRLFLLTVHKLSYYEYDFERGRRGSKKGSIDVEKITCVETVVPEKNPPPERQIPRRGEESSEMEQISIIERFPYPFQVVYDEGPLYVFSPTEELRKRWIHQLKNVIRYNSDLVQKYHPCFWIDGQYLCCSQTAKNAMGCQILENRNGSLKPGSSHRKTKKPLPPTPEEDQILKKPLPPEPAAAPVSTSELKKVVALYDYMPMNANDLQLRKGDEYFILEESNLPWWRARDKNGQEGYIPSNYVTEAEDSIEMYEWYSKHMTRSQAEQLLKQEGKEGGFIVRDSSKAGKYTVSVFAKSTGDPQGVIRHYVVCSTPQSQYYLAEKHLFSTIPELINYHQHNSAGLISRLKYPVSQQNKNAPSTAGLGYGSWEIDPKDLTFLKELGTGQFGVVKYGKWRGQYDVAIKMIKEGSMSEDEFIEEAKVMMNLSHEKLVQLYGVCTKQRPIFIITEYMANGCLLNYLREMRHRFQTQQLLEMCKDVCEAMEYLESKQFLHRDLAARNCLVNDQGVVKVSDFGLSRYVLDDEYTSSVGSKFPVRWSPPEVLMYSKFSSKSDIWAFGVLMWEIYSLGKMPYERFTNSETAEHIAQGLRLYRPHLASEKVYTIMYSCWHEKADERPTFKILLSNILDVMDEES

IC50: 100 to 1000 nM
SMILES: C=CC(=O)N1CC[C@@H](n2c(=O)n(-c3ccc(Oc4ccc(Cl)cc4)cc3)c3cnccc32)C1 [Example 82, (R)-1-(1-acryloylpyrrolidin-3-yl)-3-(4-(4-chlorophenoxy)phenyl)-1H-imidazo[4,5-c]pyridin-2(3H)-one]

IC50: 10 to 100 nM
SMILES: C=CC(=O)N1CC[C@@H](n2c(=O)n(-c3ccc(Oc4ccccc4C)cc3)c3cnccc32)C1 [Example 83, (R)-1-(1-acryloylpyrrolidin-3-yl)-3-(4-(o-tolyloxy)phenyl)-1H-imidazo[4,5-c]pyridin-2(3H)-one]

IC50: 10 to 100 nM
SMILES: C=CC(=O)N1CC[C@@H](n2c(=O)n(-c3ccc(Oc4cccc(F)c4)cc3)c3cnccc32)C1 [Example 84, (R)-1-(1-acryloylpyrrolidin-3-yl)-3-(4-(3-fluorophenoxy)phenyl)-1H-imidazo[4,5-c]pyridin-2(3H)-one]

IC50: 10 to 100 nM
SMILES: C=CC(=O)Nc1cccc(-n2c(=O)n(-c3ccc(Oc4cccc(OC(C)C)c4)cc3)c3cnccc32)c1 [Example 85, N-(3-(3-(4-(3-isopropoxyphenoxy)phenyl)-2-oxo-2,3-dihydro-1H-imidazo[4,5-c]pyridin-1-yl)phenyl)acrylamide]

IC50: 100 to 1000 nM
SMILES: C=CC(=O)Nc1cccc(-n2c(=O)n(-c3ccc(Oc4cccc(OC)c4)c(Cl)c3)c3cnccc32)c1 [Example 86, N-(3-(3-(3-chloro-4-(3-methoxyphenoxy)phenyl)-2-oxo-2,3-dihydro-1H-imidazo[4,5-c]pyridin-1-yl)phenyl)acrylamide]

IC50: 10 to 100 nM
SMILES: C=CC(=O)Nc1cccc(-n2c(=O)n(-c3cccc(Oc4cccc(OC)c4)c3)c3cnccc32)c1 [Example 87, N-(3-(3-(3-(3-methoxyphenoxy)phenyl)-2-oxo-2,3-dihydro-1H-imidazo[4,5-c]pyridin-1-yl)phenyl)acrylamide]

The next lines start with the molecule.

SMILES: C=CC(=O)Nc1cccc(-n2c(=O)n(-c3cccc(Oc4cccc(F)c4)c3)c3cnccc32)c1 [Example 75, N-(3-(3-(3-(3-fluorophenoxy)phenyl)-2-oxo-2,3-dihydro-1H-imidazo[4,5-c]pyridin-1-yl)phenyl)acrylamide]
IC50: 10 to 100 nM

SMILES: C=CC(=O)Nc1cccc(-n2c(=O)n(-c3cccc(Oc4ccc(C)cc4)c3)c3cnccc32)c1 [Example 76, N-(3-(2-oxo-3-(3-(p-tolyloxy)phenyl)-2,3-dihydro-1H-imidazo[4,5-c]pyridin-1-yl)phenyl)acrylamide]
IC50: 10 to 100 nM

SMILES: C=CC(=O)N1CC[C@@H](n2c(=O)n(-c3ccc(Oc4cccc(F)c4)c(F)c3)c3cnccc32)C1 [Example 77, (R)-1-(1-acryloylpyrrolidin-3-yl)-3-(3-fluoro-4-(3-fluorophenoxy)phenyl)-1H-imidazo[4,5-c]pyridin-2(3H)-one]
IC50: 10 to 100 nM

SMILES: C=CC(=O)N1CC[C@@H](n2c(=O)n(-c3ccc(Oc4cccc(C)c4)c(F)c3)c3cnccc32)C1 [Example 78, (R)-1-(1-acryloylpyrrolidin-3-yl)-3-(3-fluoro-4-(m-tolyloxy)phenyl)-1H-imidazo[4,5-c]pyridin-2(3H)-one]
IC50: 10 to 100 nM

SMILES: C=CC(=O)Nc1cccc(-n2c(=O)n(-c3ccc(Oc4cccc(F)c4C)cc3)c3cnccc32)c1 [Example 79, N-(3-(3-(4-(3-fluoro-2-methylphenoxy)phenyl)-2-oxo-2,3-dihydro-1H-imidazo[4,5-c]pyridin-1-yl)phenyl)acrylamide]
IC50: 10 to 100 nM

SMILES: C=CC(=O)Nc1cccc(-n2c(=O)n(-c3ccc(Oc4ccc(OC)cc4)cc3)c3cnccc32)c1 [Example 80, N-(3-(3-(4-(4-methoxyphenoxy)phenyl)-2-oxo-2,3-dihydro-1H-imidazo[4,5-c]pyridin-1-yl)phenyl)acrylamide]
IC50: 100 to 1000 nM

SMILES: C=CC(=O)N1CC[C@@H](n2c(=O)n(-c3ccc(Oc4ccc(F)cc4)cc3)c3cnccc32)C1 [Example 81, (R)-1-(1-acryloylpyrrolidin-3-yl)-3-(4-(4-fluorophenoxy)phenyl)-1H-imidazo[4,5-c]pyridin-2(3H)-one]
IC50: 100 to 1000 nM
